Measurements taken from patent US8865683B2, “Active compound combinations having insecticidal properties” (priority 2003, dated 2014).

System: green peach aphid (Myzus persicae)
Assay: Myzus persicae test (cabbage leaf dip)
Assay type: in vivo
Conditions: cabbage leaves (Brassica oleracea) dipped
Description: The expected action for a given combination of two active compounds can be calculated according to S. R. Colby, Weed, 15 (1967), 20-22): […]
If • X is the kill rate, expressed as a percentage of the untreated control, when employing active compound A at an application rate of m g/ha or in a concentration of m ppm, • Y is the kill rate, expressed as a percentage of the untreated control, when employing active compound B at an application rate of n g/ha or in a concentration of n ppm and • E is the kill rate, expressed as a percentage of the untreated control, when employing active compounds A and B at application rates of m and n g/ha or in a concentration of m and n ppm, then
If the actual insecticidal kill rate exceeds the calculated value, the action of the combination is superadditive, i.e. a synergistic effect is present. In this case, the actually observed kill rate must exceed the value calculated using the above formula for the expected kill rate (E).
After the desired period of time, the kill in % is determined. 100% means that all animals have been killed; 0% means that none of the animals have been killed. […]
After the desired period of time, the kill in % is determined. […] The determined kill ratios are entered into Colby's formula (see page 42).

Compound | Kill rate in % after 1d, found (0.8 ppm active compound) | Kill rate in % after 1d, found (4 ppm active compound)
CCOP(=S)(OCC)Oc1nc(Cl)c(Cl)cc1Cl [(2-2) chlorpyrifos, chlorpyrifos] | 65% | –
Cc1cc(Cl)cc(C(=O)NC(C)C)c1NC(=O)c1cc(C(F)(F)F)nn1-c1ncccc1Cl [(I-1-9)] | – | 0%
